Assay results from paper PMC6286779, “HLA-A2-Restricted Epitopes Identified from MTA1 Could Elicit Antigen-Specific Cytotoxic T Lymphocyte Response” (Journal of Immunology Research, 2018).

Experiments:
[1] = test system: SW620 cells (HLA-A2+, MTA1+); experiment: LDH cytotoxicity assay, CTLs induced in HLA-A2.1/Kb transgenic mice; format: in vivo, human; settings: HLA-A2.1/Kb transgenic mice, 100 μg peptide + 140 μg T helper epitope in IFA s.c. days 0, 5, 10; splenocytes restimulated 6 days; E/T 50 : 1; n = 5
Description: (§1) In vivo induction of peptide-specific CTLs was performed as previously described. Briefly, peptide (100 μg) and the IA^b-restricted HBV-core128 T helper epitope (140 μg) emulsified in incomplete Freund's adjuvant (IFA) were used to subcutaneously immunize at the base of the tail of HLA-A2.1/K^b transgenic mice three times on days 0, 5, and 10. On day 11, all mice were sacrificed through cervical dislocation. Spleen lymphocytes were isolated and restimulated once with 10 μg/ml peptide and 10 U/ml mIL-2 in vitro for an additional 6 days. LDH and IFN-γ ELISPOT assays were performed on day 6 after in vitro stimulation. […]
To test the effects of protein, each HLA-A2.1/K^b transgenic mouse was injected subcutaneously at the base of the tail with 100 μg MTA1(1–283) or the same volume of PBS emulsified in IFA twice on days 0 and 7. On day 14, spleen lymphocytes were harvested and stimulated by peptide pool (10 μg/ml) in vitro for another 6 days. LDH, IFN-γ ELISPOT, and IFN-γ intracellular cytokine staining assays were performed on day 6 after the in vitro stimulation. E/T ratios used in the LDH assay were 12.5 : 1, 25 : 1, and 50 : 1.
(§2) Cytotoxic activity of induced T cells was tested based on the quantitation of LDH release using the nonradioactive cytotoxicity assay kit (Promega, USA) at the gradient E/T ratio [29, 31]. Target cells which expressed different levels of MTA1 or peptide-pulsed T2 cells were used as target cells. The anti-human HLA-A2 antibody (BB7.2) was added 30 min before adding effector cells to determine the HLA restriction. Target cells (5 × 10^3/well) were cocultured with the effector cells at 37°C for 4 h. The percentage of specific lysis of the target cells was determined using the equation: percentage of specific lysis = [(experimental release − effector spontaneous release − target spontaneous release)/(target maximum release − target spontaneous release)] × 100.

[2] = test system: T2 cells pulsed with each peptide; experiment: as above; format: in vivo, human; settings: 100 μg peptide + 140 μg T helper epitope in IFA s.c. days 0, 5, 10, splenocytes restimulated 6 days, E/T 50 : 1, n = 5
Description: as §1, §2

[3] = target: T1, peptide/HLA-A*0201 complexes (Homo sapiens, UniProt P04439, D140Y/D185E/D98H/E176V/E277Q/G131W/G231S/I119V/I121R/I166T/I218V/L300P/L318F/N151K/N90K/P208A/P217A/Q86G/Q94H/R138H/R169H/T345S); experiment: T2 stabilization (stability) assay; format: binding; settings: T2 cells, peptide 50 μg/ml, 18 h, then brefeldin A 10 μg/ml 1 h; read at 0, 2, 4, 6 h, 37°C; flow cytometry
T1 construct: endogenous in cells; host or cells: T2 lymphoblastic cell line (TAP-deficient)
Description: For the stability assay, each of the selected peptides (50 μg/ml) was incubated with T2 cells (1 × 10^6 cells/ml) for 18 h in serum-free RPMI 1640 medium supplemented with 3 μg/ml β2-M at 37°C. Thereafter, cells were washed twice and incubated with brefeldin A (10 μg/ml, eBiosciences, USA) for 1 h. Subsequently, the cells were washed and incubated for 0, 2, 4, and 6 h at 37°C. Cells were washed twice, stained with BB7.2 for 0.5 h at 4°C. Finally, cells were collected, washed, and analyzed by flow cytometry. Dissociation complex 50 (DC50) was defined as time (t) required for the loss of 50% of the HLA-A^∗0201/peptide complexes stabilized at 0 h.

[4] = test system: HLA-A2.1/K^b transgenic mice; experiment: IFN-γ ELISPOT of CTLs induced in HLA-A2.1/Kb transgenic mice; format: in vivo; settings: HLA-A2.1/Kb transgenic mice immunized with peptide; stimulators peptide-pulsed T2 cells
Description: In vivo induction of peptide-specific CTLs was performed as previously described. Briefly, peptide (100 μg) and the IA^b-restricted HBV-core128 T helper epitope (140 μg) emulsified in incomplete Freund's adjuvant (IFA) were used to subcutaneously immunize at the base of the tail of HLA-A2.1/K^b transgenic mice three times on days 0, 5, and 10. On day 11, all mice were sacrificed through cervical dislocation. Spleen lymphocytes were isolated and restimulated once with 10 μg/ml peptide and 10 U/ml mIL-2 in vitro for an additional 6 days. LDH and IFN-γ ELISPOT assays were performed on day 6 after in vitro stimulation. E/T ratios used in the LDH assay were 20 : 1, 40 : 1, and 80 : 1.
(§3) The ELISPOT assay was performed using a commercial kit (Dakewe, China) according to the procedures previously described. Briefly, T2 cells incubated with/without candidate peptide (50 μg/ml) were used as the stimulating cells, effector cells (1 × 10^5) and stimulator cells (peptide-pulsed T2 cells or T2 cells only, 1 × 10^5) were seeded into the 96-well plate precoated with an anti-human (or anti-mouse) IFN-γ antibody. After incubation at 37°C for 18 h, cells were removed, and plates were processed for analysis as instructed. The spot number was determined automatically using a computer-assisted spot analyzer (Dakewe, China).

MCF-7 (HLA-A2+, MTA1+) = experiment: LDH cytotoxicity assay, CTLs induced in vitro; format: cell-based, human; settings: peptide-induced CTLs from healthy donors, E/T 50 : 1
Description: (§4) CTL induction in vitro was conducted according to the procedures previously described. Briefly, PBMCs from eight HLA-A^∗02^+ healthy donors were isolated using Ficoll-Paque density gradient centrifugation and resuspended in RPMI 1640 medium supplemented with 10% FBS. Then, PBMCs were stimulated three times (once a week) with the indicated peptides (10 μg/ml) or protein MTA1(1–283) (at final concentrations of 0, 1, 10, 30, and 50 μg/ml) for 21 days. Human recombinant cytokine interleukin-2 (IL-2) (50 U/ml) was added on day 3 and 1 day after each stimulation. The cytotoxic assay (lactate dehydrogenase (LDH) assay) and IFN-γ secretion enzyme-linked immunospot (ELISPOT) assay were performed on day 21.
as §2

SW620 (HLA-A2+, MTA1+) = experiment: LDH cytotoxicity assay, CTLs induced in vitro; format: cell-based, human; settings: CTLs induced by peptide 10 μg/ml from donor no. 6; E/T 50 : 1; LDH release, 4 h; n = 3
Description: as §4, §2

[5] = test system: MDA-MB-231 (HLA-A2+, MTA1+); experiment: LDH cytotoxicity assay, CTLs induced in vitro; format: cell-based, human; settings: CTLs induced by peptide 10 μg/ml from donor no. 6; E/T 50 : 1; LDH release, 4 h; n = 3
Description: as §4, §2

HT-29 (HLA-A2−, MTA1+) = experiment: LDH cytotoxicity assay, CTLs induced in vitro; format: cell-based, human; settings: peptide-induced CTLs, HLA-A2-negative control target
Description: as §4, §2

[6] = test system: PBMCs from HLA-A*02+ healthy donors; experiment: IFN-γ ELISPOT of CTLs induced in vitro; format: cell-based, human; settings: PBMCs of six donors stimulated with peptide 10 μg/ml three times, day 21; stimulators peptide-pulsed T2 cells (50 μg/ml); 1 × 10^5 effectors; mean, n = 6
Description: as §4, §3

DC50: time required for the loss of 50% of the HLA-A*0201/peptide complexes stabilized at 0 h [3]	Sequence	lysis rate of SW620 cells, CTLs induced in vivo [1]	lysis rate of peptide-pulsed T2 target cells, CTLs induced in vivo [2]	IFN-γ production, ELISPOT, CTLs induced in vivo [4]	rate of MCF-7 cell lysis (MCF-7 (HLA-A2+, MTA1+))	lysis rate of SW620 cells (SW620 (HLA-A2+, MTA1+))	lysis rate of MDA-MB-231 cells [5]	lysis of HT-29 cells (HT-29 (HLA-A2−, MTA1+))	IFN-γ ELISPOT mean spot intensities [6]
>6 h	TLLNETESL [Peptide P129]	51.81%	31.6%	greater production of IFN-γ compared with the other peptides	9.34%	38.4%	14.1%	did not lyse	411
>2 h	YLIRRIEEL [Peptide P22]	37.29%	22.43%	greater production of IFN-γ compared with the other peptides	16.0%	71.4%	24.8%	did not lyse	566
